Holding throughout (assay): MIC, microdilution broth method (NCCLS)
What all share (type): cell-based
For orientation: Broth dilution looks for growth in wells or tubes with falling amounts of substance.

The test system of experiment [1] is E. coli OC2605. The following applies: A: E. coli OC2605, 35° C., 16-20 hours. Here is the method:
(§1) Minimal inhibitory concentration (MIC) has been an indicator of in vitro antibacterial activity widely used in the art. The in vitro antimicrobial activity of the compounds was determined by the microdilution broth method following the test method from the National Committee for Clinical Laboratory Standards (NCCLS). This method is described in the NCCLS Document M7-A4, Vol. 17, No. 2, “Methods for Dilution Antimicrobial Susceptibility Test for Bacteria that Grow Aerobically—Fourth Edition”, which is incorporated herein by reference.
(§2) In this method two-fold serial dilutions of drug in cation adjusted Mueller-Hinton broth are added to wells in microdilution trays. The test organisms are prepared by adjusting the turbidity of actively growing broth cultures so that the final concentration of test organism after it is added to the wells is approximately 5×10^4 CFU/well.
(§3) Following inoculation of the microdilution trays, the trays are incubated at 35° C. for 16-20 hours and then read. […] The amount of growth in the wells containing the test compound is compared with the amount of growth in the growth-control wells (no test compound) used in each tray. As set forth in Table 1, compounds of the present invention were tested against a variety of Gram positive and Gram negative pathogenic bacteria resulting in a range of activities depending on the organism tested.

In experiment [2] the test system is E. faecalis ATCC29212. The following applies: C: E. faecalis ATCC29212, 35° C., 16-20 hours. Here is the method: as §1, §2, §3
Experiment [3] concerns H. influenzae ATCC49247. The following applies: E: H. influenzae ATCC49247, 35° C., 16-20 hours. The procedure: as §1, §2, §3
The subject of experiment [4] is S. aureus ATCC29213. The following applies: B: S. aureus ATCC29213, 35° C., 16-20 hours. The procedure:
as §1, §2, §3

For experiment [5], the system named is S. pneumoniae ATCC49619. The following applies: D: S. pneumoniae ATCC49619, 35° C., 16-20 hours. The procedure:
as §1, §2, §3

Converted amounts (≈) assume the structure as drawn. Like-named read-outs stand apart in the source and are kept apart here.

`CC[C@H]1OC(=O)[C@H](C)C(=O)[C@H](C)[C@@H](O[C@@H]2O[C@H](C)C[C@H](N(C)C)[C@H]2O)[C@](C)(OC(=O)NCCCc2ccncc2)C[C@@H](C)C(=O)[C@H](C)[C@H]2NC(=O)O[C@@]21C` [Compound 24]: the MIC worked out at 16 µg/mL (≈ 21 µM) in experiment [1]; 0.12 µg/mL (≈ 0.158 µM) in experiment [2]; 2 µg/mL (≈ 2.63 µM) in experiment [3]; 1 µg/mL (≈ 1.31 µM) in experiment [4]; 0.06 µg/mL (≈ 0.0789 µM) in experiment [5].

Consider `CC[C@H]1OC(=O)[C@H](C)C(=O)[C@H](C)[C@@H](O[C@@H]2O[C@H](C)C[C@H](N(C)C)[C@H]2O)[C@](C)(OC(=O)NCCCc2ccnc3ccccc23)C[C@@H](C)C(=O)[C@H](C)[C@H]2NC(=O)O[C@@]21C` [Compound 25], for which the MIC amounted to 8 µg/mL (≈ 9.86 µM) in experiment [1]; 0.06 µg/mL (≈ 0.074 µM) in experiment [2]; 4 µg/mL (≈ 4.93 µM) in experiment [3]; 0.25 µg/mL (≈ 0.308 µM) in experiment [4]; 0.03 µg/mL (≈ 0.037 µM) in experiment [5].

In the case of `CC[C@H]1OC(=O)[C@H](C)C(=O)[C@H](C)[C@@H](O[C@@H]2O[C@H](C)C[C@H](N(C)C)[C@H]2O)[C@](C)(OC(=O)NC/C=C/c2ccc(-c3ccncc3)cc2)C[C@@H](C)C(=O)[C@H](C)[C@H]2NC(=O)O[C@@]21C` [Compound 26], the MIC in experiment [1] was over 16 µg/mL; in experiment [2], 0.12 µg/mL (≈ 0.144 µM); in experiment [3], 2 µg/mL (≈ 2.4 µM); in experiment [4], 0.5 µg/mL (≈ 0.599 µM); in experiment [5] it was 0.03 µg/mL (≈ 0.0359 µM).

As to `CC[C@H]1OC(=O)[C@H](C)C(=O)[C@H](C)[C@@H](O[C@@H]2O[C@H](C)C[C@H](N(C)C)[C@H]2O)[C@](C)(OC(=O)NC/C=C/c2ccc(-c3cncnc3)cc2)C[C@@H](C)C(=O)[C@H](C)[C@H]2NC(=O)O[C@@]21C` [Compound 27], the MIC was 16 µg/mL (≈ 19.1 µM) in experiment [1]; 0.12 µg/mL (≈ 0.144 µM) in experiment [2]; 4 µg/mL (≈ 4.78 µM) in experiment [3]; 0.25 µg/mL (≈ 0.299 µM) in experiment [4]; 0.06 µg/mL (≈ 0.0718 µM) in experiment [5].

On to `CC[C@H]1OC(=O)[C@H](C)C(=O)[C@H](C)[C@@H](O[C@@H]2O[C@H](C)C[C@H](N(C)C)[C@H]2O)[C@](C)(OC(=O)NCc2ccc(-c3cncnc3)cc2)C[C@@H](C)C(=O)[C@H](C)[C@H]2NC(=O)O[C@@]21C` [Compound 28], for which the MIC stood at 16 µg/mL (≈ 19.8 µM) in experiment [1]; 0.06 µg/mL (≈ 0.0741 µM) in experiment [2]; 4 µg/mL (≈ 4.94 µM) in experiment [3]; 0.25 µg/mL (≈ 0.309 µM) in experiment [4]; 0.03 µg/mL (≈ 0.037 µM) in experiment [5].

Regarding `CC[C@H]1OC(=O)[C@H](C)C(=O)[C@H](C)[C@@H](O[C@@H]2O[C@H](C)C[C@H](N(C)C)[C@H]2O)[C@](C)(OC(=O)NCC#Cc2cnc3ccccc3c2)C[C@@H](C)C(=O)[C@H](C)[C@H]2NC(=O)O[C@@]21C` [Compound 29], the MIC in experiment [1] is 16 µg/mL (≈ 19.8 µM); in experiment [2] it was 0.06 µg/mL (≈ 0.0744 µM); in experiment [3], 2 µg/mL (≈ 2.48 µM); in experiment [4], 0.5 µg/mL (≈ 0.62 µM); in experiment [5] it was 0.03 µg/mL (≈ 0.0372 µM).

For `CC[C@H]1OC(=O)[C@H](C)C(=O)[C@H](C)[C@@H](O[C@@H]2O[C@H](C)C[C@H](N(C)C)[C@H]2O)[C@](C)(OC(=O)NC/C=C/c2ccncc2)C[C@@H](C)C(=O)[C@H](C)[C@H]2NC(=O)O[C@@]21C` [Compound 30], the MIC in experiment [1] came to 16 µg/mL (≈ 21.1 µM); in experiment [2], 0.12 µg/mL (≈ 0.158 µM); in experiment [3] it was 2 µg/mL (≈ 2.64 µM); in experiment [4] it was 0.5 µg/mL (≈ 0.659 µM); in experiment [5], 0.03 µg/mL (≈ 0.0395 µM).

On to `CC[C@H]1OC(=O)[C@H](C)C(=O)[C@H](C)[C@@H](O[C@@H]2O[C@H](C)C[C@H](N(C)C)[C@H]2O)[C@](C)(OC(=O)NCc2ccc(-c3ncccn3)cc2)C[C@@H](C)C(=O)[C@H](C)[C@H]2NC(=O)O[C@@]21C` [Compound 31], for which the MIC amounted to 16 µg/mL (≈ 19.8 µM) in experiment [1]; 0.06 µg/mL (≈ 0.0741 µM) in experiment [2]; 2 µg/mL (≈ 2.47 µM) in experiment [3]; 0.25 µg/mL (≈ 0.309 µM) in experiment [4]; 0.03 µg/mL (≈ 0.037 µM) in experiment [5].

In the case of `CC[C@H]1OC(=O)[C@H](C)C(=O)[C@H](C)[C@@H](O[C@@H]2O[C@H](C)C[C@H](N(C)C)[C@H]2O)[C@](C)(OC(=O)NCc2ccc(-c3cc[nH]n3)cc2)C[C@@H](C)C(=O)[C@H](C)[C@H]2NC(=O)O[C@@]21C` [Compound 39], the MIC in experiment [1] is over 16 µg/mL; in experiment [2] it was 0.12 µg/mL (≈ 0.15 µM); in experiment [3], 1 µg/mL (≈ 1.25 µM); in experiment [4] it was 1 µg/mL (≈ 1.25 µM); in experiment [5] it was 0.06 µg/mL (≈ 0.0752 µM).

Take `CC[C@H]1OC(=O)[C@H](C)C(=O)[C@H](C)[C@@H](O[C@@H]2O[C@H](C)C[C@H](N(C)C)[C@H]2O)[C@](C)(OC(=O)NC/C=C/c2ccc3nccnc3c2)C[C@@H](C)C(=O)[C@H](C)[C@H]2NC(=O)O[C@@]21C` [Compound 41]: the MIC in experiment [1] was found to be 16 µg/mL (≈ 19.8 µM); in experiment [2], 0.12 µg/mL (≈ 0.148 µM); in experiment [3], 1 µg/mL (≈ 1.23 µM); in experiment [4] it was 0.25 µg/mL (≈ 0.309 µM); in experiment [5] it was 0.03 µg/mL (≈ 0.037 µM).

Regarding `CC[C@H]1OC(=O)[C@H](C)C(=O)[C@H](C)[C@@H](O[C@@H]2O[C@H](C)C[C@H](N(C)C)[C@H]2O)[C@](C)(OC(=O)NCc2ccc(-c3ccc([N+](=O)[O-])cn3)cc2)C[C@@H](C)C(=O)[C@H](C)[C@H]2NC(=O)O[C@@]21C` [Compound 42], the MIC is 16 µg/mL (≈ 18.7 µM) in experiment [1]; 0.12 µg/mL (≈ 0.141 µM) in experiment [2]; 1 µg/mL (≈ 1.17 µM) in experiment [3]; 0.5 µg/mL (≈ 0.586 µM) in experiment [4]; 0.12 µg/mL (≈ 0.141 µM) in experiment [5].

Consider `CC[C@H]1OC(=O)[C@H](C)C(=O)[C@H](C)[C@@H](O[C@@H]2O[C@H](C)C[C@H](N(C)C)[C@H]2O)[C@](C)(OC(=O)NC/C=C/c2ccc(-c3ccn(C)n3)cc2)C[C@@H](C)C(=O)[C@H](C)[C@H]2NC(=O)O[C@@]21C` [Compound 43, Carbamic acid, [(2E)-3-[4-(1-methyl-1H-pyrazol-3-yl)phenyl]-2-propenyl]-, (3aS,4R,7R,9R,10R,11R,13R,15R,15aR)-4-ethyltetradecahydro-3a,7,9,11,13,15-hexamethyl-2,6,8,14-tetraoxo-10-[[3,4,6-trideoxy-3-(dimethylamino)-β-D-xylo-hexopyranosyl]oxy]-2H-oxacyclotetradecino[4,3-d]oxazol-11-yl ester], for which the MIC is over 16 µg/mL in experiment [1] (Escherichia coli, read-out: MIC); 0.12 µg/mL (≈ 0.143 µM) in experiment [2] (Enterococcus faecalis, read-out: MIC); 2 µg/mL (≈ 2.39 µM) in experiment [3] (Haemophilus influenzae, read-out: MIC); 0.25 µg/mL (≈ 0.298 µM) in experiment [4] (Staphylococcus aureus, read-out: MIC); 0.03 µg/mL (≈ 0.0358 µM) in experiment [5] (Streptococcus pneumoniae, read-out: MIC).

On to `CC[C@H]1OC(=O)[C@H](C)C(=O)[C@H](C)[C@@H](O[C@@H]2O[C@H](C)C[C@H](N(C)C)[C@H]2O)[C@](C)(OC(=O)NC/C=C/c2ccc(-c3ccnn3C)cc2)C[C@@H](C)C(=O)[C@H](C)[C@H]2NC(=O)O[C@@]21C` [Compound 44], for which the MIC in experiment [1] is over 16 µg/mL; in experiment [2], 0.12 µg/mL (≈ 0.143 µM); in experiment [3] it was 2 µg/mL (≈ 2.39 µM); in experiment [4], 0.25 µg/mL (≈ 0.298 µM); in experiment [5], 0.12 µg/mL (≈ 0.143 µM).

On to `CC[C@H]1OC(=O)[C@H](C)C(=O)[C@H](C)[C@@H](O[C@@H]2O[C@H](C)C[C@H](N(C)C)[C@H]2O)[C@](C)(OC(=O)NC/C=C/c2ccc(-c3ccc([N+](=O)[O-])cn3)cc2)C[C@@H](C)C(=O)[C@H](C)[C@H]2NC(=O)O[C@@]21C` [Compound 45], for which the MIC is over 16 µg/mL in experiment [1]; 0.5 µg/mL (≈ 0.568 µM) in experiment [2]; 4 µg/mL (≈ 4.55 µM) in experiment [3]; 1 µg/mL (≈ 1.14 µM) in experiment [4]; 0.25 µg/mL (≈ 0.284 µM) in experiment [5].

As for `CC[C@H]1OC(=O)[C@H](C)C(=O)[C@H](C)[C@@H](O[C@@H]2O[C@H](C)C[C@H](N(C)C)[C@H]2O)[C@](C)(OC(=O)NC/C=C/c2ccc(-n3cccn3)nc2)C[C@@H](C)C(=O)[C@H](C)[C@H]2NC(=O)O[C@@]21C` [Compound 49], the MIC came to 16 µg/mL (≈ 19.4 µM) in experiment [1]; 0.06 µg/mL (≈ 0.0727 µM) in experiment [2]; 2 µg/mL (≈ 2.42 µM) in experiment [3]; 0.25 µg/mL (≈ 0.303 µM) in experiment [4]; 0.06 µg/mL (≈ 0.0727 µM) in experiment [5].

For the compound `CC[C@H]1OC(=O)[C@H](C)C(=O)[C@H](C)[C@@H](O[C@@H]2O[C@H](C)C[C@H](N(C)C)[C@H]2O)[C@](C)(OC(=O)NC/C=C/C=C/c2cccc(-n3cncn3)n2)C[C@@H](C)C(=O)[C@H](C)[C@H]2NC(=O)O[C@@]21C` [Compound 50], the MIC in experiment [1] was 16 µg/mL (≈ 18.8 µM); in experiment [2] it was 0.06 µg/mL (≈ 0.0704 µM); in experiment [3] it was 2 µg/mL (≈ 2.35 µM); in experiment [4], 0.25 µg/mL (≈ 0.293 µM); in experiment [5], “≦0.015 μg/mL”.
